Molecules are shown by their SMILES.

Results on one compound are retold here after patent US8058314B2, “Conductance of improperly folded proteins through the secretory pathway and related methods for treating disease” (Yale University, priority 1999, dated 2011).

This assay concerns ΔF508 CFTR. The experiment in a line: Confocal immunofluorescence localization of CFTR in CFPAC cells. The format is cell-based, human. The procedure:
CFPAC and CFBE290^− epithelial cells were grown to confluence on 0.45 micron Transwell filter inserts (Corning Costar, Cambridge, Mass.) under the same conditions described for the short circuit current measurements. Prior to immunofluorescence analysis, filter grown cell monolayers were treated for 90 min with 1 μM thapsigargin at 37° C., present in both the apical and basolateral media compartments. The media was then changed to standard Iscove's growth medium or DMEM without thapsigargin, and cells were incubated for 2 or 4 hours at 37° C. Control cells underwent the same media changes but were not subjected to thapsigargin treatment.
Following the second incubation, the filter grown monolayers were washed once with phosphate buffered saline supplemented with calcium and magnesium (150 mM NaCl, 10 mM NaPi, pH 7.4, 1 mM MgCl2, 0.1 mM CaCl2), after which they were fixed for 10 minutes in −20° C. 100% methanol. Immunofluorescence labeling was performed using the well characterized 169 and 181 antibodies (gift of W. Guggino, Johns Hopkins University) directed against the R domain and the prenucleotide binding fold of the CFTR protein, respectively (Crawford et al., Proc. Nat. Acad. Sci. 88:9262-9266 (1991)) and a monoclonal antibody directed against the α-subunit of the Na,K-ATPase (Gottardi and Caplan, J. Cell Biol. 121:283-293 (1993)).
Incubations with primary and rhodamine-conjugated secondary antibodies were performed as previously described (Gottardi and Caplan, Id.). Labeled cells were examined using a Zeiss LSM 410 laser scanning confocal microscope. All images are the product of 8-fold line averaging. Contrast and brightness settings were chosen so that all pixels were in the linear range. YZ cross sections were generated using a 0.2 μmotor step.

As for `C/C=C(/C)C(=O)O[C@H]1C(C)=C2[C@H]([C@@H]1OC(=O)CCCCCCC)[C@@](C)(OC(C)=O)C[C@H](OC(=O)CCC)[C@@]1(O)[C@H]2OC(=O)[C@@]1(C)O` [thapsigargin], the CFTR staining pattern result (1 μM thapsigargin 90 min, en face and XZ cross section) is reported as “bright labeling of apical microvilli could be detected in most of the cells”; the CFTR staining pattern result (2 hours after 1 μM thapsigargin 90 min) is “exhibited only apical staining”; the CFTR staining pattern entry (4 hours after 1 μM thapsigargin 90 min, data not shown) was “CFTR staining both at the apical membrane and in the ER”. Besides, where the note is “10 mm cycloheximide during treatment and chase, cell line not stated, data not shown”, the “thapsigargin effect on ΔF508-CFTR surface appearance with protein synthesis blocked” value is “did not abrogate the thapsigargin effect”. Where the note is “cell line not stated, data not shown”, the “thapsigargin-induced delivery of ΔF508-CFTR to the cell surface in BAPTA-preloaded cells” value was “did not inhibit the thapsigargin-induced delivery of ΔF508-CFTR to the cell surface”.
